Results as given in patent US8455475B2 (Gruenenthal GmbH, priority 2009, dated 2013).

Experiments:
[1] = target: T1, rat B1R (bradykinin receptor 1) (Rattus norvegicus, UniProt P97583); test: FLIPR Ca2+ assay (Fluo-4) on CHO K1 cells stably transfected with the B1R gene of the rat (rB1R cells): % inhibition at 10 μM / IC50, agonist Des-Arg9-bradykinin; type: cell-based; settings: CHO-K1, rat B1R
T1 construct: expressed in transfected cells; host or cells: CHO K1 cells
T1 sequence (P97583 1-337): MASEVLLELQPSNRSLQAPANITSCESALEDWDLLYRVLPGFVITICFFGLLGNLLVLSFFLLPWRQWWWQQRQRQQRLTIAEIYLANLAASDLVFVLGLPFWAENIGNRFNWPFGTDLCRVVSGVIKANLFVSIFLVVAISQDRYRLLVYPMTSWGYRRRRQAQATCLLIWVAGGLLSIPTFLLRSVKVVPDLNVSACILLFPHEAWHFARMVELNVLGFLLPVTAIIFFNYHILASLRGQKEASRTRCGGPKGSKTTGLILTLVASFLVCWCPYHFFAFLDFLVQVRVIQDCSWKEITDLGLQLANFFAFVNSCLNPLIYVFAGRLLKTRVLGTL
How it was run: (§1)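 Cells were Fluo-4-loaded, then test compound (10 μM, or a concentration series for IC50) was preincubated 10–20 min before agonist challenge at EC80: Lys-Des-Arg9-bradykinin for hB1R, Des-Arg9-bradykinin for rB1R. Peak Ca2+ fluorescence (ex 488/em 540 nm) gave % inhibition versus maximal achievable inhibition.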

[2] = target: T2, human B1R (bradykinin receptor 1) (Homo sapiens, UniProt P46663); test: FLIPR Ca2+ assay (Fluo-4) on CHO K1 cells stably transfected with the human B1R gene (hB1R cells): % inhibition at 10 μM / IC50, agonist Lys-Des-Arg9-bradykinin; type: cell-based; settings: CHO-K1, human B1R
T2 construct: expressed in transfected cells; host or cells: CHO K1 cells
T2 sequence (P46663 1-353): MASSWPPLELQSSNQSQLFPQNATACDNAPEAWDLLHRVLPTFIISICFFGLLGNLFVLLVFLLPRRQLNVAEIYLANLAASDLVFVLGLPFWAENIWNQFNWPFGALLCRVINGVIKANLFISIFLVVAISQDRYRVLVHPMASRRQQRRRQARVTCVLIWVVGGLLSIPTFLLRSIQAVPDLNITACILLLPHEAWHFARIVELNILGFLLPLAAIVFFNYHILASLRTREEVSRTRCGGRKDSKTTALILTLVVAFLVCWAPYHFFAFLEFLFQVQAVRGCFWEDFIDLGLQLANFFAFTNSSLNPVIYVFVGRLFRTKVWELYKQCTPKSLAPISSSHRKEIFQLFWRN
How it was run: as §1

| inhibition at 10 µM [1] | inhibition at 10 µM [2] | Structure (SMILES) |
| --- | --- | --- |
| 102% | 99% | Cc1cc2c(cc1C(=O)N1CCC3(CC1)CCN(c1ccncc1)CC3)[C@H](NC(=O)c1ccccc1Cl)CC2 [Example H-66, 2-Chloro-N-[(1R)-5-methyl-6-(9-pyridin-4-yl-3,9-diazaspiro[5.5]undecane-3-carbonyl)-2,3-dihydro-1H-inden-1-yl]-benzamide] |
| 102% | 100% | O=C(N[C@@H]1CCOc2ccc(C(=O)N3CCC4(CCN(c5ccncc5)CC4)C3)cc21)c1ccccc1Cl [Example H-67, 2-Chloro-N-[(4R)-6-(8-pyridin-4-yl-3,8-diazaspiro[4.5]decane-3-carbonyl)-3,4-dihydro-2H-chromen-4-yl]-benzamide] |
| 93% | 96% | COc1ccc2cc(C(=O)N[C@@H]3CCc4ccc(C(=O)N5CCC6(CC5)CCN(c5ccncc5)C6)cc43)ccc2c1 [Example H-68, 6-Methoxy-N-[(1R)-6-(3-pyridin-4-yl-3,8-diazaspiro[4.5]decane-8-carbonyl)-2,3-dihydro-1H-inden-1-yl]-naphthalene-2-carboxylic acid amid] |
| 102% | 98% | O=C(N[C@@H]1CCCc2ccc(C(=O)N3CCCC4(CCCN(c5ccncc5)C4)C3)cc21)c1ccccc1Cl (some centres unmarked) [Example H-69] |
| 103% | 90% | O=C(N[C@@H]1CCCc2ccc(C(=O)N3CCCC4(CCN(c5ccncc5)C4)C3)cc21)c1ccccc1Cl (stereo partly drawn) [Example H-70, 2-Chloro-N-[(1R)-7-(2-pyridin-4-yl-2,9-diazaspiro[4.5]decane-9-carbonyl]-1,2,3,4-tetrahydro-naphthalen-1-yl]-benzamide] |
| 103% | 100% | O=C(N[C@@H]1CCCc2ccc(C(=O)N3CC4(CCN(c5ccncc5)CC4)C3)cc21)c1ccccc1Cl [Example H-71, 2-Chloro-N-[(1R)-7-(7-pyridin-4-yl-2,7-diazaspiro[3.5]nonane-2-carbonyl)-1,2,3,4-tetrahydro-naphthalen-1-yl]-benzamide] |
| 104% | 100% | O=C(N[C@@H]1CCCc2ccc(C(=O)N3CCC4(CC3)CCN(c3ccncc3)C4)cc21)c1ccccc1Cl [Example H-72] |
| 103% | 100% | O=C(N[C@@H]1CCOc2c(F)cc(C(=O)N3CCC4(CCN(c5ccncc5)CC4)C3)cc21)c1ccccc1Cl [Example H-73, 2-Chloro-N-[(4R)-8-fluoro-6-(8-pyridin-4-yl-3,8-diazaspiro[4.5]decane-3-carbonyl)-3,4-dihydro-2H-chromen-4-yl]-benzamide] |
| 100% | 94% | Cc1cc(OC(F)(F)F)ccc1C(=O)N[C@@H]1CCc2ccc(C(=O)N3CCC4(CCN(c5ccncc5)CC4)C3)cc21 [Example H-74, 2-Methyl-N-[(1R)-6-(8-pyridin-4-yl-3,8-diazaspiro[4.5]decane-3-carbonyl)-2,3-dihydro-1H-inden-1-yl]-4-(trifluoromethyloxy)-benzamide] |
| 64% | 29% | Cc1cc(OC(F)(F)F)ccc1C(=O)N[C@@H]1CCc2ccc(C(=O)N3CCC4(CC3)CCN(c3ccncc3)C4)cc21 [Example H-75, 2-Methyl-N-[(1R)-6-(3-pyridin-4-yl-3,8-diazaspiro[4.5]decane-8-carbonyl)-2,3-dihydro-1H-inden-1-yl]-4-(trifluoromethyloxy)-benzamide] |
| 102% | 100% | O=C(N[C@@H]1CCc2ccc(C(=O)N3CCC4(CCN(c5ccncc5)CC4)C3)cc21)c1c(Cl)cccc1C(F)(F)F [Example H-76, 2-Chloro-N-[(1R)-6-(8-pyridin-4-yl-3,8-diazaspiro[4.5]decane-3-carbonyl)-2,3-dihydro-1H-inden-1-yl]-6-(trifluoromethyl)-benzamide] |
| 104% | 100% | O=C(N[C@@H]1CCOc2c(F)cc(C(=O)N3CCC4(CC3)CCN(c3ccncc3)CC4)cc21)c1ccccc1Cl [Example H-78] |
| 105% | 57% | O=C(N[C@@H]1CCCc2ccc(C(=O)N3CCC4(CCCN(c5ccncc5)C4)CC3)cc21)c1ccccc1Cl [Example H-80] |
| 103% | 78% | O=C(N[C@@H]1CCCc2ccc(C(=O)N3CCC4(CCCN(c5ccncc5)C4)C3)cc21)c1ccccc1Cl (stereo partly drawn) [Example H-81, 2-Chloro-N-[(1R)-7-(7-pyridin-4-yl-3,7-diazaspiro[4.5]decane-3-carbonyl)-1,2,3,4-tetrahydro-naphthalen-1-yl]-benzamide] |
| 104% | 100% | O=C(N[C@@H]1CCCc2cc(F)c(C(=O)N3CCC4(CCN(c5ccncc5)CC4)C3)cc21)c1ccccc1Cl [Example H-82, 2-Chloro-N-[(1R)-6-fluoro-7-(8-pyridin-4-yl-3,8-diazaspiro[4.5]decane-3-carbonyl)-1,2,3,4-tetrahydro-naphthalen-1-yl]-benzamide] |
| 105% | 100% | O=C(N[C@@H]1CCc2ccc(C(=O)N3CCC4(CC3)CCN(c3ccncc3)C4)cc21)c1c(Cl)cccc1C(F)(F)F [Example H-83, 2-Chloro-N-[(1R)-6-(3-pyridin-4-yl-3,8-diazaspiro[4.5]decane-8-carbonyl)-2,3-dihydro-1H-inden-1-yl]-6-(trifluoromethyl)-benzamide] |
| 104% | 100% | O=C(N[C@@H]1CCc2ccc(C(=O)N3CCC4(CCN(c5ccncc5)CC4)C3)cc21)c1cncnc1 [Example H-84, N-[(1R)-6-(8-Pyridin-4-yl-3,8-diazaspiro[4.5]decane-3-carbonyl)-2,3-dihydro-1H-inden-1-yl]-pyrimidine-5-carboxylic acid amide] |
| 103% | 100% | O=C(N[C@@H]1CCc2ccc(C(=O)N3CCC4(CC3)CCN(c3ccncc3)CC4)cc21)c1c(Cl)cccc1C(F)(F)F [Example H-85, 2-Chloro-N-[(1R)-6-(9-pyridin-4-yl-3,9-diazaspiro[5.5]undecane-3-carbonyl]-2,3-dihydro-1H-inden-1-yl]-6-(trilfuoromethyl)-benzamide] |
| 79% | 95% | O=C(N[C@@H]1CCc2ccc(C(=O)N3CCC4(CC3)CCN(c3ccncc3)C4)cc21)c1cncnc1 [Example H-86, N-[(1R)-6-(3-Pyridin-4-yl-3,8-diazaspiro[4.5]decane-8-carbonyl)-2,3-dihydro-1H-inden-1-yl]-pyrimidine-5-carboxylic acid amide] |
| 103% | 99% | O=C(N[C@@H]1CCCc2cc(F)c(C(=O)N3CCC4(CC3)CCN(c3ccncc3)C4)cc21)c1ccccc1Cl [Example H-87, 2-Chloro-N-[(1R)-6-fluoro-7-(3-pyridin-4-yl-3,8-diazaspiro[4.5]decane-8-carbonyl)-1,2,3,4-tetrahydro-naphthalen-1-yl]-benzamide] |
| 104% | 100% | O=C(N[C@@H]1CCCc2cc(F)c(C(=O)N3CCC4(CC3)CCN(c3ccncc3)CC4)cc21)c1ccccc1Cl [Example H-88] |
| 103% | 99% | O=C(N[C@@H]1CCc2cc(F)c(C(=O)N3CCC4(CC3)CCN(c3ccncc3)C4)cc21)c1ccccc1Cl [Example H-89, 2-Chloro-N-[(1R)-5-fluoro-6-(3-pyridin-4-yl-3,8-diazaspiro[4.5]decane-8-carbonyl)-2,3-dihydro-1H-inden-1-yl]-benzamide] |
| 103% | 100% | O=C(N[C@@H]1CCc2cc(F)c(C(=O)N3CCC4(CC3)CCN(c3ccncc3)CC4)cc21)c1ccccc1Cl [Example H-90, 2-Chloro-N-[(1R)-5-fluoro-6-(9-pyridin-4-yl-3,9-diazaspiro[5.5]undecane-3-carbonyl)-2,3-dihydro-1H-inden-1-yl]-benzamide] |
| 104% | 100% | O=C(N[C@@H]1CCc2ccc(C(=O)N3CCC4(CC3)CCN(c3ccncc3)C4)cc21)c1ccccc1Cl [Example H-91, 2-Chloro-N-[(1R)-6-(3-pyridin-4-yl-3,8-diazaspiro[4.5]decane-8-carbonyl)-2,3-dihydro-1H-inden-1-yl]-benzamide] |
| 104% | 96% | O=C(N[C@@H]1CCOc2cc(F)c(C(=O)N3CCC4(CC3)CCN(c3ccncc3)CC4)cc21)c1ccccc1Cl [Example H-92, 2-Chloro-N-[(4R)-7-fluoro-6-(9-pyridin-4-yl-3,9-diazaspiro[5.5]undecane-3-carbonyl)-3,4-dihydro-2H-chromen-4-yl]-benzamide] |
